Assay [1] addresses T1, human sphingosine-1-phosphate receptor 1 (S1P1) (Homo sapiens (Human), UniProt P21453). The assay is described as follows: Inhibition of cAMP production (HTRF cAMP HiRange), S1P1 CHO-K1 cells. The format is cell-based. The following applies: for hS1P1 cAMP pEC50 / EC50: inhibition of cAMP production, S1P1 CHO-K1 cells; for Emax: CHO-K1, efficacy (SPAN) normalized to fingolimod, read-out: hS1P1 cAMP SPAN; for EC50: read-out: hS1P1 cAMP pEC50 (converted). Put shortly:
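CHO-K1 cells stably co-expressing human S1P1 (C-terminal Prolink tag) and EA-β-arrestin2 were grown in AssayComplete Media 6 at 37° C. and 5% CO2, plated, and incubated overnight. Agonist-driven inhibition of intracellular cAMP was read by TR-FRET with the HTRF cAMP HiRange kit on a PheraStar reader. Potency is pEC50, and efficacy (SPAN) is normalized to fingolimod.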
Target sequence in this assay (P21453 whole entry, looked up): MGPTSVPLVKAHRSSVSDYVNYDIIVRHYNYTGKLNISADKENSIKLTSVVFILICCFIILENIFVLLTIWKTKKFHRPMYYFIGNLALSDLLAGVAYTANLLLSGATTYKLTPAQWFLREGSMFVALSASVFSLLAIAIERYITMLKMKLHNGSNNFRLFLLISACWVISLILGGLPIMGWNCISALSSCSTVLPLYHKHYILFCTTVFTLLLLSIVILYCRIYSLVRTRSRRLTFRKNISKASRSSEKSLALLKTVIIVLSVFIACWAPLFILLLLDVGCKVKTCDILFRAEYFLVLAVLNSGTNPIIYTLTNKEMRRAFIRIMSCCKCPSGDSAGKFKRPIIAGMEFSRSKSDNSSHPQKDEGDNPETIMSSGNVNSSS

Assay [2] concerns the target T1, human sphingosine-1-phosphate receptor 1 (S1P1). The assay is described as follows: β-Arrestin2 recruitment assay (PathHunter), S1P1 CHO-K1 cells. The following applies: for hS1P1 B-arrestin2 pEC50 / EC50: β-arrestin2 recruitment, S1P1 CHO-K1 cells; for Emax: CHO-K1, efficacy (SPAN) normalized to fingolimod, read-out: hS1P1 B-arrestin2 SPAN; for EC50: read-out: hS1P1 B-arrestin2 pEC50 (converted). The format is cell-based. Put shortly:
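Enzyme-fragment complementation read-out: agonist-driven β-arrestin2 binding to ProLink-tagged human S1P1 in stable CHO-K1 cells restores β-galactosidase, measured 1 h at room temperature after a 60 min 37° C. compound incubation. Potency as pEC50, efficacy relative to fingolimod (SPAN).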
Target sequence in this assay (P21453 whole entry, looked up): as above
Target sequence in this assay (P32121 whole entry partner, looked up): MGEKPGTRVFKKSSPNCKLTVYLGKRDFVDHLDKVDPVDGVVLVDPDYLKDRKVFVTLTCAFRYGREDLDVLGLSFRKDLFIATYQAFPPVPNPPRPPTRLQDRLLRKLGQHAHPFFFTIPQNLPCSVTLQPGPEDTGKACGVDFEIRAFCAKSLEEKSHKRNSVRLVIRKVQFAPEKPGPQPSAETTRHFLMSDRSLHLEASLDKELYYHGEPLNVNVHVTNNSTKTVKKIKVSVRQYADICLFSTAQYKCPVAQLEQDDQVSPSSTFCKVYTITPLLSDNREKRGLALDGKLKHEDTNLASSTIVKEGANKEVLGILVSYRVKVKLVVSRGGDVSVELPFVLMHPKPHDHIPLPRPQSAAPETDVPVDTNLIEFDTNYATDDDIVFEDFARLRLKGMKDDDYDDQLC

For the compound `Cc1ccccc1-c1noc(-c2ccc3scnc3c2)n1` [Compound 362, 5-[3-(2-methylphenyl)-1,2,4-oxadiazol-5-yl]-1,3-benzothiazole], the “hS1P1 cAMP pEC50” value in assay [1] is less than 6.5. Besides, the “hS1P1 B-arrestin2 pEC50” value in assay [2] is less than 5.
The corresponding values for `COc1ccc(-c2nsc(-c3ccc4[nH]ccc4c3)n2)cc1` [Compound 363, 5-[3-(4-methoxyphenyl)-1,2,4-thiadiazol-5-yl]-1H-indole] are less than 6.5 and less than 5.
The corresponding values for `COc1cccc(-c2nc(-c3ccc4[nH]ccc4c3)ns2)c1` [Compound 364, 5-[5-(3-methoxyphenyl)-1,2,4-thiadiazol-3-yl]-1H-indole] are less than 6.5 and less than 5.
The corresponding values for `Cc1ccccc1-c1noc(-c2ccc3c(c2)CCC(=O)N3)n1` [Compound 365, 6-[3-(2-methylphenyl)-1,2,4-oxadiazol-5-yl]-1,2,3,4-tetrahydroquinolin-2-one] are less than 6.5 and greater than 5.
For `COc1cccc(-c2nc(-c3ccc4c(ccn4C(C)C)c3)ns2)c1` [Compound 366, 5-[5-(3-methoxyphenyl)-1,2,4-thiadiazol-3-yl]-1-(propan-2-yl)-1H-indole], the “hS1P1 cAMP pEC50” value in assay [1] was less than 6.5. Also, the “hS1P1 B-arrestin2 pEC50” value in assay [2] is less than 5.
Take `Cc1ccccc1-c1noc(-c2ccc3c(c2)CCC(=O)N3C)n1` [Compound 367, 1-methyl-6-[3-(2-methylphenyl)-1,2,4-oxadiazol-5-yl]-1,2,3,4-tetrahydroquinolin-2-one]: the “hS1P1 cAMP pEC50” value in assay [1] is less than 6.5. Further, the “hS1P1 B-arrestin2 pEC50” value in assay [2] is on record as less than 5.
The corresponding values for `COc1ccccc1-c1noc(-c2ccc3[nH]ccc3c2)n1` [Compound 368, 5-(1H-indol-5-yl)-3-(2-methoxyphenyl)-1,2,4-oxadiazole] are less than 6.5 and less than 5.
For `COc1ccccc1-c1noc(-c2ccc3[nH]cnc3c2)n1` [Compound 369, 5-(1H-benzo[d]imidazol-5-yl)-3-(2-methoxyphenyl)-1,2,4-oxadiazole], in that order: less than 6.5 and less than 5.
The corresponding values for `COc1ccccc1-c1noc(-c2ccc3c(cnn3C(C)C)c2)n1` [Compound 370, 5-(1-isopropyl-1H-indazol-5-yl)-3-(2-methoxyphenyl)-1,2,4-oxadiazole] are greater than 6.5 and greater than 5.
`COc1ccccc1-c1noc(-c2ccc3[nH]ncc3c2)n1` [Compound 371, 5-(1H-indazol-5-yl)-3-(2-methoxyphenyl)-1,2,4-oxadiazole]: in assay [1], the “hS1P1 cAMP pEC50” value is on record as less than 6.5. The “hS1P1 B-arrestin2 pEC50” value in assay [2] is less than 5.
For `COc1ccccc1-c1noc(-c2ccc3c(ccn3C(C)C)c2)n1` [Compound 372, 5-(1-isopropyl-1H-indol-5-yl)-3-(2-methoxyphenyl)-1,2,4-oxadiazole], in that order: greater than 6.5 and greater than 5.
Consider `COc1ccccc1-c1noc(-c2ccc3c(c2)ncn3C(C)C)n1` [Compound 373, 5-(1-isopropyl-1H-benzo[d]imidazol-5-yl)-3-(2-methoxyphenyl)-1,2,4-oxadiazole], for which the “hS1P1 cAMP pEC50” value in assay [1] was less than 6.5. Besides, in assay [2], the “hS1P1 B-arrestin2 pEC50” value is less than 5.
Take `CC(C)n1ccc2cc(-c3nc(-c4ccccc4F)ns3)ccc21` [Compound 374, 5-[3-(2-fluorophenyl)-1,2,4-thiadiazol-5-yl]-1-(propan-2-yl)-1H-indole]: the “hS1P1 cAMP pEC50” value in assay [1] is recorded as less than 6.5. Also, the “hS1P1 B-arrestin2 pEC50” value in assay [2] was less than 5.
As for `COc1ccccc1-c1nc(-c2ccc3c(ccn3C(C)C)c2)ns1` [Compound 375, 5-[5-(2-methoxyphenyl)-1,2,4-thiadiazol-3-yl]-1-(propan-2-yl)-1H-indole], the “hS1P1 cAMP pEC50” value in assay [1] is greater than 6.5. Moreover, the “hS1P1 B-arrestin2 pEC50” value in assay [2] was greater than 5.
`CN1C(=O)Cc2cc(-c3nc(-c4cccnc4)no3)ccc21` [Compound 377, 1-methyl-5-[3-(pyridin-3-yl)-1,2,4-oxadiazol-5-yl]-2,3-dihydro-1H-indol-2-one]: the “hS1P1 cAMP pEC50” value in assay [1] was less than 6.5. In addition, the “hS1P1 B-arrestin2 pEC50” value in assay [2] is reported as less than 5.
Regarding `COC(=O)C12C3C4C1C1C2C3C41c1nc(-c2ccc3c(c2)nnn3C(C)C)no1` (stereo not shown) [Compound 378], the Emax in assay [1] and in assay [2] was less than 75% throughout. Besides, the EC50 was greater than 0.316 µM in assay [1] and greater than 10 µM in assay [2].
Take `CC(C)n1nnc2cc(-c3noc(C45C6C7C4C4C5C6C74C(=O)O)n3)ccc21` (stereo not shown) [Compound 379]: the Emax in assay [1] and in assay [2] was less than 75% in each case. Besides, the EC50 was greater than 0.316 µM in assay [1] and greater than 10 µM in assay [2].
For `CC(C)n1ccc2cc(-c3nsc(-c4ccccc4F)n3)ccc21` [Compound 380, 5-[5-(2-fluorophenyl)-1,2,4-thiadiazol-3-yl]-1-(propan-2-yl)-1H-indole], the “hS1P1 cAMP pEC50” value in assay [1] was less than 6.5. Moreover, the “hS1P1 B-arrestin2 pEC50” value in assay [2] is listed as less than 5.
As for `Cc1ccccc1-c1nsc(-c2ccc3c(ccn3C(C)C)c2)n1` [Compound 381, 5-[3-(2-methylphenyl)-1,2,4-thiadiazol-5-yl]-1-(propan-2-yl)-1H-indole], in assay [1], the “hS1P1 cAMP pEC50” value is given as less than 6.5. The “hS1P1 B-arrestin2 pEC50” value in assay [2] is given as greater than 5.
Take `Cc1ccccc1-c1noc(-c2cnc3c(c2)nnn3C(C)C)n1` [Compound 382, 3-(2-methylphenyl)-5-[3-(propan-2-yl)-3H-[1,2,3]triazolo[4,5-b]pyridin-6-yl]-1,2,4-oxadiazole]: the “hS1P1 cAMP pEC50” value in assay [1] is on record as greater than 6.5. Besides, in assay [2], the “hS1P1 B-arrestin2 pEC50” value is on record as greater than 5.
For `COc1ccccc1-c1noc(-c2cnc3c(c2)nnn3C(C)C)n1` [Compound 383, 3-(2-methoxyphenyl)-5-[3-(propan-2-yl)-3H-[1,2,3]triazolo[4,5-b]pyridin-6-yl]-1,2,4-oxadiazole], the “hS1P1 cAMP pEC50” value in assay [1] was greater than 6.5. Moreover, the “hS1P1 B-arrestin2 pEC50” value in assay [2] was greater than 5.
On to `COc1cccc(-c2coc(-c3ccc4c(c3)nnn4C(C)C)n2)c1` [Compound 385, 5-[4-(3-methoxyphenyl)-1,3-oxazol-2-yl]-1-(propan-2-yl)-1H-1,2,3-benzotriazole], for which, in assay [1], the Emax was less than 75% and the “hS1P1 cAMP pEC50” value is reported as less than 6.5. Besides, in assay [2], the Emax was greater than 75% and the “hS1P1 B-arrestin2 pEC50” value was less than 5.
Take `O=C1CCc2cc(-c3nc(-c4cccnc4)no3)ccc2N1` [Compound 386, 6-[3-(pyridin-3-yl)-1,2,4-oxadiazol-5-yl]-1,2,3,4-tetrahydroquinolin-2-one]: in assay [1], the “hS1P1 cAMP pEC50” value is recorded as less than 6.5. Further, in assay [2], the “hS1P1 B-arrestin2 pEC50” value is recorded as less than 5.
For `CC(C)n1ccc2cc(-c3noc(-c4ccccc4F)n3)ccc21` [Compound 387, 5-(2-fluorophenyl)-3-(1-isopropyl-1H-indol-5-yl)-1,2,4-oxadiazole], in that order: less than 6.5 and greater than 5.
The corresponding values for `CC(C)n1ccc2cc(-c3noc(-c4ccccc4Br)n3)ccc21` [Compound 388, 5-(2-bromophenyl)-3-(1-isopropyl-1H-indol-5-yl)-1,2,4-oxadiazole] are greater than 6.5 and greater than 5.
For `Cc1ccccc1-c1nc(-c2ccc3c(ccn3C(C)C)c2)no1` [Compound 389, 3-(1-isopropyl-1H-indol-5-yl)-5-(o-tolyl)-1,2,4-oxadiazole], in that order: greater than 6.5 and greater than 5.

The record behind these values is patent US11912693B2, “Compounds for modulating S1P1 activity and methods of using the same” (TREVENA, INC., priority 2017, dated 2024).
